Activity calls are given as the source filed them. The rule behind the calls is not given here.

This is an account of results in PubChem BioAssay AID1259407 (Chemical Carcinogenesis Research Information System (CCRIS), 2018).

The series relates to CCRIS mutagenicity, Ames/micronucleus/aberration tests. Put plainly: CCRIS mutagenicity studies.
[1] abbreviates: Test System: AMES SALMONELLA TYPHIMURIUM, Strain/Indicator: TA97, Metabolic Activation: NONE, Method: PREINCUBATION
Where [2] appears, read: Test System: AMES SALMONELLA TYPHIMURIUM, Strain/Indicator: TA98, Metabolic Activation: NONE, Method: PREINCUBATION
Where [3] appears, read: Test System: AMES SALMONELLA TYPHIMURIUM, Strain/Indicator: TA100, Metabolic Activation: NONE, Method: PREINCUBATION
The mark [4] stands for this setting: Test System: AMES SALMONELLA TYPHIMURIUM, Strain/Indicator: TA1535, Metabolic Activation: NONE, Method: PREINCUBATION
Setting [5] is: Test System: AMES SALMONELLA TYPHIMURIUM, Strain/Indicator: TA1537, Metabolic Activation: HAMSTER, LIVER, S-9, AROCLOR 1254 (30%), Method: PREINCUBATION
The mark [6] stands for this setting: Test System: AMES SALMONELLA TYPHIMURIUM, Strain/Indicator: TA1537, Metabolic Activation: NONE, Method: PREINCUBATION
Setting [7] is: Test System: AMES SALMONELLA TYPHIMURIUM, Strain/Indicator: TA1537, Metabolic Activation: RAT, LIVER, S-9, AROCLOR 1254 (30%), Method: PREINCUBATION

For the compound `C[C@@H]1C[C@@H]([C@H](O)CC2CC(=O)NC(=O)C2)C(=O)[C@@H](C)C1`, the mutagenic call was “inactive; negative” (Test System: AMES SALMONELLA TYPHIMURIUM, Strain/Indicator: TA97, Metabolic Activation: HAMSTER, LIVER, S-9, AROCLOR 1254 (10 OR 30%), Method: PREINCUBATION); “inactive; negative” under setting [1]; “inactive; negative” (Test System: AMES SALMONELLA TYPHIMURIUM, Strain/Indicator: TA97, Metabolic Activation: RAT, LIVER, S-9, AROCLOR 1254 (10 OR 30%), Method: PREINCUBATION); “inactive; negative” (Test System: AMES SALMONELLA TYPHIMURIUM, Strain/Indicator: TA98, Metabolic Activation: HAMSTER, LIVER, S-9, AROCLOR 1254 (10 OR 30%), Method: PREINCUBATION); “inactive; negative” under setting [2]; “inactive; negative” (Test System: AMES SALMONELLA TYPHIMURIUM, Strain/Indicator: TA98, Metabolic Activation: NONE, Method: STANDARD PLATE). Further, the mutagenic call by setting is: (Test System: AMES SALMONELLA TYPHIMURIUM, Strain/Indicator: TA98, Metabolic Activation: RAT, LIVER, S-9, AROCLOR 1254 (10 OR 30%), Method: PREINCUBATION) “inactive; negative”; (Test System: AMES SALMONELLA TYPHIMURIUM, Strain/Indicator: TA98, Metabolic Activation: RAT, LIVER, S-9, AROCLOR, Method: STANDARD PLATE) “inactive; negative”; (Test System: AMES SALMONELLA TYPHIMURIUM, Strain/Indicator: TA100, Metabolic Activation: HAMSTER, LIVER, S-9, AROCLOR 1254 (10 OR 30%), Method: PREINCUBATION) “inactive; negative”; under setting [3], “inactive; negative”; (Test System: AMES SALMONELLA TYPHIMURIUM, Strain/Indicator: TA100, Metabolic Activation: NONE, Method: STANDARD PLATE) “inactive; negative”; (Test System: AMES SALMONELLA TYPHIMURIUM, Strain/Indicator: TA100, Metabolic Activation: RAT, LIVER, S-9, AROCLOR 1254 (10 OR 30%), Method: PREINCUBATION) “inactive; negative”. Moreover, the mutagenic call by setting is: (Test System: AMES SALMONELLA TYPHIMURIUM, Strain/Indicator: TA100, Metabolic Activation: RAT, LIVER, S-9, AROCLOR, Method: STANDARD PLATE) “inactive; negative”; (Test System: AMES SALMONELLA TYPHIMURIUM, Strain/Indicator: TA1535, Metabolic Activation: HAMSTER, LIVER, S-9, AROCLOR 1254 (10 OR 30%), Method: PREINCUBATION) “inactive; negative”; under setting [4], “inactive; negative”; (Test System: AMES SALMONELLA TYPHIMURIUM, Strain/Indicator: TA1535, Metabolic Activation: RAT, LIVER, S-9, AROCLOR 1254 (10 OR 30%), Method: PREINCUBATION) “inactive; negative”; under setting [5], “inactive; negative”; under setting [6], “inactive; negative”. Besides, the mutagenic call runs as follows: under setting [7], “inactive; negative”; (Test System: MOUSE LYMPHOMA, Strain/Indicator: L5178Y (TK+/TK-), Metabolic Activation: NONE, Method: SUSPENSION/PLATE) “active; positive”.
In the case of `O=C(c1ccc(O)cc1)c1ccc(O)cc1`, under “End Point: In vitro micronucleus, Test System: HepG2 cells, Metabolic Activation: None”, the mutagenic call was “inactive; negative”.
On to `O=C(O)C1=NN(c2ccc(S(=O)(=O)O)cc2)C(=O)C1N=Nc1ccc(S(=O)(=O)O)cc1.[Al]` (centres undefined), for which the mutagenic call is, setting by setting: (Test System: AMES SALMONELLA TYPHIMURIUM, Strain/Indicator: TA97, Metabolic Activation: HAMSTER, LIVER, S-9, AROCLOR 1254 (10%), Method: PREINCUBATION) “inactive; negative”; (Test System: AMES SALMONELLA TYPHIMURIUM, Strain/Indicator: TA97, Metabolic Activation: HAMSTER, LIVER, S-9, AROCLOR 1254 (30%), Method: PREINCUBATION) “inactive; negative”; under setting [1], “inactive; negative”; (Test System: AMES SALMONELLA TYPHIMURIUM, Strain/Indicator: TA97, Metabolic Activation: RAT, LIVER, S-9, AROCLOR 1254 (10%), Method: PREINCUBATION) “inactive; negative”; (Test System: AMES SALMONELLA TYPHIMURIUM, Strain/Indicator: TA97, Metabolic Activation: RAT, LIVER, S-9, AROCLOR 1254 (30%), Method: PREINCUBATION) “inactive; negative”; (Test System: AMES SALMONELLA TYPHIMURIUM, Strain/Indicator: TA98, Metabolic Activation: HAMSTER, LIVER, S-9, AROCLOR 1254 (10%), Method: PREINCUBATION) “inactive; negative”. Further, the mutagenic call by setting is: (Test System: AMES SALMONELLA TYPHIMURIUM, Strain/Indicator: TA98, Metabolic Activation: HAMSTER, LIVER, S-9, AROCLOR 1254 (30%), Method: PREINCUBATION) “inactive; negative”; under setting [2], “inactive; negative”; (Test System: AMES SALMONELLA TYPHIMURIUM, Strain/Indicator: TA98, Metabolic Activation: RAT, LIVER, S-9, AROCLOR 1254 (10%), Method: PREINCUBATION) “inactive; negative”; (Test System: AMES SALMONELLA TYPHIMURIUM, Strain/Indicator: TA98, Metabolic Activation: RAT, LIVER, S-9, AROCLOR 1254 (30%), Method: PREINCUBATION) “inactive; negative”; (Test System: AMES SALMONELLA TYPHIMURIUM, Strain/Indicator: TA100, Metabolic Activation: HAMSTER, LIVER, S-9, AROCLOR 1254 (10%), Method: PREINCUBATION) “inactive; negative”; (Test System: AMES SALMONELLA TYPHIMURIUM, Strain/Indicator: TA100, Metabolic Activation: HAMSTER, LIVER, S-9, AROCLOR 1254 (30%), Method: PREINCUBATION) “inactive; negative”. Besides, the mutagenic call runs as follows: under setting [3], “inactive; negative”; (Test System: AMES SALMONELLA TYPHIMURIUM, Strain/Indicator: TA100, Metabolic Activation: RAT, LIVER, S-9, AROCLOR 1254 (10%), Method: PREINCUBATION) “inactive; negative”; (Test System: AMES SALMONELLA TYPHIMURIUM, Strain/Indicator: TA100, Metabolic Activation: RAT, LIVER, S-9, AROCLOR 1254 (30%), Method: PREINCUBATION) “inactive; negative”; (Test System: AMES SALMONELLA TYPHIMURIUM, Strain/Indicator: TA1535, Metabolic Activation: HAMSTER, LIVER, S-9, AROCLOR 1254 (10%), Method: PREINCUBATION) “inactive; negative”; (Test System: AMES SALMONELLA TYPHIMURIUM, Strain/Indicator: TA1535, Metabolic Activation: HAMSTER, LIVER, S-9, AROCLOR 1254 (30%), Method: PREINCUBATION) “inactive; negative”; under setting [4], “inactive; negative”. For the same compound, the mutagenic call was “inactive; negative” (Test System: AMES SALMONELLA TYPHIMURIUM, Strain/Indicator: TA1535, Metabolic Activation: RAT, LIVER, S-9, AROCLOR 1254 (10%), Method: PREINCUBATION); “inactive; negative” (Test System: AMES SALMONELLA TYPHIMURIUM, Strain/Indicator: TA1535, Metabolic Activation: RAT, LIVER, S-9, AROCLOR 1254 (30%), Method: PREINCUBATION); “inactive; negative” under setting [5]; “inactive; negative” under setting [6]; “inactive; negative” under setting [7].
